Measured values as given in patent US20020026053A1, “Novel 3-(substituted) -2- indolinones compounds and use thereof as inhibitors of protein kinase activity” (priority 1997, published 2002).

Legend:
[1] = test system: FLK-1 receptor; assay: FLK-1 Assay (cellular/catalytic ELISA, VEGF-stimulated phosphotyrosine); format: cell-based; parameters: concentration or dose not given beside the values
Summary of the method: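 Receptor phosphotyrosine ELISA: Flk-1-expressing NIH3T3 C7#3 cells, starved overnight in 0.1% FBS medium, received compound (1:200 final dilution, 0.5% DMSO) for 2 h at 37 °C, then VEGF. Anti-FLK-1-captured receptor was probed with anti-phosphotyrosine UB40 and peroxidase/ABTS read-out, relative to cells without compound.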

[2] = test system: PDGF-R; assay: PDGF-R Assay (cellular ELISA, U1242 cells); format: cell-based; parameters: concentration or dose not given beside the values
Summary of the method: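 Cellular ELISA for receptor autophosphorylation: after 2 hr test-compound treatment of serum-free U1242 cells at 37°C, ligand is added for 5–10 min, cells are lysed (HNTG) and receptor captured by specific antibody. Anti-phosphotyrosine plus secondary antibody with ABTS colour read at 410/630 nm, compared with compound-free control cells.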

Compound | Flk Kinase % Inhibition (P.110) [1] [%] | PDGF Kinase % Inhibition (P.119) [2] [%]
Cc1c(O)ccc(C=C2C(=O)Nc3c(Br)cc(Br)c(C)c32)c1O [10718/H09] | −5.0 | 
Cc1c(Br)cc(Br)c2c1C(=Cc1ccco1)C(=O)N2 [10718/H10] | 1.4 | 
Cc1c(Br)cc(Br)c2c1C(=Cc1ccc([N+](=O)[O-])o1)C(=O)N2 [10718/H11] | 13.0 | 
CCOc1ccc(C=C2C(=O)Nc3c(Br)cc(Br)c(C)c32)cc1OC [10719/H02] | 22.0 | 
Cc1c(Br)cc(Br)c2c1C(=Cc1ccc(O)c(O)c1)C(=O)N2 [10719/H03] | −40.4 | 
COc1ccc(C=C2C(=O)Nc3c(Br)cc(Br)c(C)c32)c(OC)c1 [10719/H04] | 3.4 | 
CCc1c(C)[nH]c(C=C2C(=O)Nc3c(Br)cc(Br)c(C)c32)c1C [10719/H05] | 18.5 | 
COc1cc(OC)c(C=C2C(=O)Nc3c(Br)cc(Br)c(C)c32)c(OC)c1 [10719/H06] | 17.8 | 
CCN(CC)c1ccc(C=C2C(=O)Nc3c(Br)cc(Br)c(C)c32)c(O)c1 [10734/H05] | 1.6 | −14.4
Cc1c(Br)cc(Br)c2c1C(=Cc1ccc([N+](=O)[O-])cc1)C(=O)N2 [10734/H06] | 2.6 | −26.3
Cc1c(Br)cc(Br)c2c1C(=Cc1cc(Br)cc(Br)c1O)C(=O)N2 [10734/H07] | 1.4 | −6.4
Cc1c(Br)cc(Br)c2c1C(=Cc1cccc(F)c1O)C(=O)N2 [10734/H08] | −2.2 | 2.9
Cc1c(Br)cc(Br)c2c1C(=Cc1ccc(O)c(Br)c1)C(=O)N2 [10734/H09] | −2.2 | −19.2
Cc1c(Br)cc(Br)c2c1C(=Cc1ccc(C(C)(C)C)cc1)C(=O)N2 [10734/H10] | 3.9 | −17.9
Cc1c(Br)cc(Br)c2c1C(=Cc1ccc(Br)s1)C(=O)N2 [10734/H11] | 9.9 | −17.9
Cc1ccccc1C=C1C(=O)Nc2c(Br)cc(Br)cc21 [10735/A02] | −13.4 | 14.3
O=C1Nc2c(Br)cc(Br)cc2C1=Cc1ccc(F)c(F)c1 [10735/A03] | −1.0 | 21.9
O=C1Nc2c(Br)cc(Br)cc2C1=Cc1cc(F)cc(F)c1 [10735/A04] | −20.8 | 18.8
O=C1Nc2c(Br)cc(Br)cc2C1=Cc1cccc(C(F)(F)F)c1 [10735/A05] | −12.2 | 0.9
O=C1Nc2c(Br)cc(Br)cc2C1=Cc1cc(C(F)(F)F)cc(C(F)(F)F)c1 [10735/A06] | −8.5 | 4.7

Compound | Flk Kinase % Inhibition (P.110) [1] [%] | PDGF Kinase % Inhibition (P.119) [2] [%]
N#Cc1ccccc1C=C1C(=O)Nc2c(Br)cc(Br)cc21 [10735/A07] | −1.3 | 0.5
O=C1Nc2c(Br)cc(Br)cc2C1=Cc1c(F)cccc1F [10735/A08] | −19.6 | 5.3
O=C1Nc2c(Br)cc(Br)cc2C1=Cc1cccc2ccccc12 [10735/A09] | −6.3 | 1.9
O=C1Nc2c(Br)cc(Br)cc2C1=Cc1ccc(Cl)cc1Cl [10735/A10] | 2.2 | −0.2
O=C1Nc2c(Br)cc(Br)cc2C1=Cc1ccc(-c2ccccc2)cc1 [10735/A11] | 2.2 | 5.7
Cc1ccccc1C=C1C(=O)Nc2ccc(I)cc21 [10735/B02] | 1.1 | 22.6
O=C1Nc2ccc(I)cc2C1=Cc1ccc(F)c(F)c1 [10735/B03] | −14.3 | 16.4
O=C1Nc2ccc(I)cc2C1=Cc1cc(F)cc(F)c1 [10735/B04] | 6.1 | 2.9
O=C1Nc2ccc(I)cc2C1=Cc1cccc(C(F)(F)F)c1 [10735/B05] | 7.4 | 17.4
O=C1Nc2ccc(I)cc2C1=Cc1cc(C(F)(F)F)cc(C(F)(F)F)c1 [10735/B06] | 17.5 | 14.0
N#Cc1ccccc1C=C1C(=O)Nc2ccc(I)cc21 [10735/B07] | −5.9 | 0.5
O=C1Nc2ccc(I)cc2C1=Cc1c(F)cccc1F [10735/B08] | 1.6 | 9.8
O=C1Nc2ccc(I)cc2C1=Cc1cccc2ccccc12 [10735/B09] | 15.9 | −0.5
O=C1Nc2ccc(I)cc2C1=Cc1ccc(Cl)cc1Cl [10735/B10] | 9.2 | 3.6
O=C1Nc2ccc(I)cc2C1=Cc1ccc(-c2ccccc2)cc1 [10735/B11] | 15.7 | −8.8
Cc1ccccc1C=C1C(=O)Nc2ccc(Br)c(C)c21 [10735/C02] | 0.1 | 4.7
Cc1c(Br)ccc2c1C(=Cc1ccc(F)c(F)c1)C(=O)N2 [10735/C03] | 0.9 | 4.3
Cc1c(Br)ccc2c1C(=Cc1cc(F)cc(F)c1)C(=O)N2 [10735/C04] | 17.2 | 12.9
Cc1c(Br)ccc2c1C(=Cc1cccc(C(F)(F)F)c1)C(=O)N2 [10735/C05] | 11.2 | 20.5
Cc1c(Br)ccc2c1C(=Cc1cc(C(F)(F)F)cc(C(F)(F)F)c1)C(=O)N2 [10735/C06] | 18.2 | 25.0

Compound | Flk Kinase % Inhibition (P.110) [1] [%] | PDGF Kinase % Inhibition (P.119) [2] [%]
Cc1c(Br)ccc2c1C(=Cc1ccccc1C#N)C(=O)N2 [10735/C07] | 9.6 | 11.9
Cc1c(Br)ccc2c1C(=Cc1c(F)cccc1F)C(=O)N2 [10735/C08] | 10.1 | −2.6
Cc1c(Br)ccc2c1C(=Cc1cccc3ccccc13)C(=O)N2 [10735/C09] | 24.5 | −2.6
Cc1c(Br)ccc2c1C(=Cc1ccc(Cl)cc1Cl)C(=O)N2 [10735/C10] | 21.0 | 4.0
Cc1c(Br)ccc2c1C(=Cc1ccc(-c3ccccc3)cc1)C(=O)N2 [10735/C11] | 18.6 | −2.9
CNS(=O)(=O)c1ccc2c(c1)C(=Cc1ccccc1C)C(=O)N2 [10735/D02] | 0.9 | 11.6
CNS(=O)(=O)c1ccc2c(c1)C(=Cc1ccc(F)c(F)c1)C(=O)N2 [10735/D03] | 4.5 | 12.9
CNS(=O)(=O)c1ccc2c(c1)C(=Cc1cc(F)cc(F)c1)C(=O)N2 [10735/D04] | 9.1 | 8.5
CNS(=O)(=O)c1ccc2c(c1)C(=Cc1cccc(C(F)(F)F)c1)C(=O)N2 [10735/D05] | 29.5 | 20.5
CNS(=O)(=O)c1ccc2c(c1)C(=Cc1cc(C(F)(F)F)cc(C(F)(F)F)c1)C(=O)N2 [10735/D06] | 16.2 | 14.7
CNS(=O)(=O)c1ccc2c(c1)C(=Cc1ccccc1C#N)C(=O)N2 [10735/D07] | 21.6 | 3.6
CNS(=O)(=O)c1ccc2c(c1)C(=Cc1c(F)cccc1F)C(=O)N2 [10735/D08] | 21.6 | −5.7
CNS(=O)(=O)c1ccc2c(c1)C(=Cc1cccc3ccccc13)C(=O)N2 [10735/D09] | 22.6 | 6.7
CNS(=O)(=O)c1ccc2c(c1)C(=Cc1ccc(Cl)cc1Cl)C(=O)N2 [10735/D10] | 15.1 | 3.3
CNS(=O)(=O)c1ccc2c(c1)C(=Cc1ccc(-c3ccccc3)cc1)C(=O)N2 [10735/D11] | 25.1 | 0.5
Cc1ccccc1C=C1C(=O)Nc2ccc(S(=O)(=O)Nc3ccc(C(F)(F)F)cc3)cc21 [10735/E02] | −2.0 | 14.7
O=C1Nc2ccc(S(=O)(=O)Nc3ccc(C(F)(F)F)cc3)cc2C1=Cc1ccc(F)c(F)c1 [10735/E03] | 5.1 | 16.0
O=C1Nc2ccc(S(=O)(=O)Nc3ccc(C(F)(F)F)cc3)cc2C1=Cc1cc(F)cc(F)c1 [10735/E04] | 12.2 | 91.6
O=C1Nc2ccc(S(=O)(=O)Nc3ccc(C(F)(F)F)cc3)cc2C1=Cc1cccc(C(F)(F)F)c1 [10735/E05] | 14.7 | 47.8
O=C1Nc2ccc(S(=O)(=O)Nc3ccc(C(F)(F)F)cc3)cc2C1=Cc1cc(C(F)(F)F)cc(C(F)(F)F)c1 [10735/E06] | 23.8 | 32.3
